Measurements as given in patent US8449898B2 (priority 2007, dated 2013).
Where two headings read alike, the source gives them in different places.

Legend:
[1] = tested on: Pseudoperonospora cubensis (the causal agent of cucumber downy mildew); assay: Test B: cucumber downy mildew, preventive spray on cucumber seedlings; assay type: in vivo; details: for pest or weed control at 10 µg/mL: component (b) alone 10 ppm (Compound 1 0 ppm); for pest or weed control at 40 µg/mL: component (b) alone 40 ppm (Compound 1 0 ppm)
[2] = tested on: Phytophthora infestans (the causal agent of tomato late blight); assay: whole plant or invertebrate; assay type: in vivo; details: for pest or weed control at 0.4 ppm / pest or weed control at 2 ppm / pest or weed control at 10 ppm / pest or weed control at 40 ppm / pest or weed control at 200 ppm / pest or weed control at 1000 ppm / pest or weed control at 5000 ppm / pest or weed control at 0.08 ppm: Phytophthora infestans; for TLB Obsd (disease control rating): Table A
[3] = Pseudoperonospora cubensis, Table D, component (b) alone at 10 ppm, read-out: CDM Obsd
[4] = Pseudoperonospora cubensis, Table D, component (b) alone at 40 ppm, read-out: CDM Obsd
[5] = Pseudoperonospora cubensis, read-out: CDM Obsd
[6] = Pseudoperonospora cubensis, component (b) alone, 10 ppm, read-out: CDM Obsd (observed effect, cucumber downy mildew)
[7] = Pseudoperonospora cubensis, component (b) alone, 40 ppm, read-out: CDM Obsd (observed effect, cucumber downy mildew)
[8] = read-out: TLB Obsd (observed effect, tomato late blight), component (b) alone, 10 ppm
[9] = read-out: TLB Obsd (observed effect, tomato late blight), component (b) alone, 40 ppm
[10] = read-out: TLB Obsd, Table D, component (b) alone at 10 ppm
[11] = read-out: TLB Obsd, Table D, component (b) alone at 40 ppm

C#CCOc1ccc(CCNC(=O)C(OCC#C)c2ccc(Cl)cc2)cc1OC (stereo not drawn) [mandipropamid]
CDM Obsd ([1]; Table F, component (b) alone at 0.016 ppm): 33% | CDM Obsd ([1]; Table F, component (b) alone at 0.08 ppm): 97% | CDM Obsd ([1]; Table F, component (b) alone at 0.4 ppm): 100% | CDM Obsd ([1]; Table F, component (b) alone at 2 ppm): 100% | CDM Obsd ([1]; Table F, component (b) alone at 10 ppm): 100% | CDM Obsd (observed effect, cucumber downy mildew) ([1]; component (b) alone, 0.08 ppm): 86 | CDM Obsd (observed effect, cucumber downy mildew) ([1]; component (b) alone, 0.4 ppm): 100 | CDM Obsd (observed effect, cucumber downy mildew) ([1]; component (b) alone, 2 ppm): 100 | CDM Obsd (observed effect, cucumber downy mildew) ([1]; component (b) alone, 10 ppm): 100 | CDM Obsd (observed effect, cucumber downy mildew) ([1]; component (b) alone, 40 ppm): 100 | TLB Obsd ([2]; Table E, component (b) alone at 0.016 ppm): 26% | TLB Obsd ([2]; Table E, component (b) alone at 0.08 ppm): 33% | TLB Obsd ([2]; Table E, component (b) alone at 0.4 ppm): 88% | TLB Obsd ([2]; Table E, component (b) alone at 2 ppm): 100% | TLB Obsd ([2]; Table E, component (b) alone at 10 ppm): 100% | TLB Obsd (observed effect, tomato late blight) ([2]; component (b) alone, 0.08 ppm): 80 | TLB Obsd (observed effect, tomato late blight) ([2]; component (b) alone, 0.4 ppm): 97 | TLB Obsd (observed effect, tomato late blight) ([2]; component (b) alone, 2 ppm): 99 | TLB Obsd (observed effect, tomato late blight) ([2]; component (b) alone, 10 ppm): 100 | TLB Obsd (observed effect, tomato late blight) ([2]; component (b) alone, 40 ppm): 100

CC(C)CC(C)c1sccc1NC(=O)c1cn(C)nc1C(F)(F)F (stereo not drawn) [penthiopyrad]
pest or weed control at 0.4 ppm ([1]; Pseudoperonospora cubensis, Table A, component (b) alone 0.4 ppm, read-out: CDM Obsd (disease control rating)): 47% | pest or weed control at 2 ppm ([1]; Pseudoperonospora cubensis, Table A, component (b) alone 2 ppm, read-out: CDM Obsd (disease control rating)): 47% | pest or weed control at 10 ppm ([1]; Pseudoperonospora cubensis, Table A, component (b) alone 10 ppm, read-out: CDM Obsd (disease control rating)): 47% | pest or weed control at 40 ppm ([1]; Pseudoperonospora cubensis, Table A, component (b) alone 40 ppm, read-out: CDM Obsd (disease control rating)): 47% | pest or weed control at 200 ppm ([1]; Pseudoperonospora cubensis, Table A, component (b) alone 200 ppm, read-out: CDM Obsd (disease control rating)): 47% | pest or weed control at 0.4 ppm ([1]; Pseudoperonospora cubensis, Table G, component (b) alone at 0.4 ppm, read-out: CDM Obsd): 43% | pest or weed control at 2 ppm ([1]; Pseudoperonospora cubensis, Table G, component (b) alone at 2 ppm, read-out: CDM Obsd): 33% | pest or weed control at 10 ppm ([1]; Pseudoperonospora cubensis, Table G, component (b) alone at 10 ppm, read-out: CDM Obsd): 26% | pest or weed control at 40 ppm ([1]; Pseudoperonospora cubensis, Table G, component (b) alone at 40 ppm, read-out: CDM Obsd): 26% | pest or weed control at 200 ppm ([1]; Pseudoperonospora cubensis, Table G, component (b) alone at 200 ppm, read-out: CDM Obsd): 47% | pest or weed control at 0.4 ppm ([1]; Pseudoperonospora cubensis, component (b) alone, 0.4 ppm, read-out: CDM Obsd): 0% | pest or weed control at 2 ppm ([1]; Pseudoperonospora cubensis, component (b) alone, 2 ppm, read-out: CDM Obsd): 0% | pest or weed control at 10 ppm ([1]; Pseudoperonospora cubensis, component (b) alone, 10 ppm, read-out: CDM Obsd): 0% | pest or weed control at 40 ppm ([1]; Pseudoperonospora cubensis, component (b) alone, 40 ppm, read-out: CDM Obsd): 0% | pest or weed control at 200 ppm ([1]; Pseudoperonospora cubensis, component (b) alone, 200 ppm, read-out: CDM Obsd): 16% | pest or weed control at 0.4 ppm ([2]; read-out: TLB Obsd (disease control rating), Table A, component (b) alone 0.4 ppm): 0% | pest or weed control at 2 ppm ([2]; read-out: TLB Obsd (disease control rating), Table A, component (b) alone 2 ppm): 0% | pest or weed control at 10 ppm ([2]; read-out: TLB Obsd (disease control rating), Table A, component (b) alone 10 ppm): 9% | pest or weed control at 40 ppm ([2]; read-out: TLB Obsd (disease control rating), Table A, component (b) alone 40 ppm): 17% | pest or weed control at 200 ppm ([2]; read-out: TLB Obsd (disease control rating), Table A, component (b) alone 200 ppm): 17% | pest or weed control at 0.4 ppm ([2]; read-out: TLB Obsd, component (b) alone, 0.4 ppm): 0% | pest or weed control at 2 ppm ([2]; read-out: TLB Obsd, component (b) alone, 2 ppm): 22% | pest or weed control at 10 ppm ([2]; read-out: TLB Obsd, component (b) alone, 10 ppm): 7% | pest or weed control at 40 ppm ([2]; read-out: TLB Obsd, component (b) alone, 40 ppm): 15% | pest or weed control at 200 ppm ([2]; read-out: TLB Obsd, component (b) alone, 200 ppm): 7%

CCCOC(=O)NCCCN(C)C [propamocarb]
pest or weed control at 10 ppm [1, 3]: 47% | pest or weed control at 40 ppm [1, 4]: 47% | pest or weed control at 200 ppm ([1]; Pseudoperonospora cubensis, Table D, component (b) alone at 200 ppm, read-out: CDM Obsd): 58% | pest or weed control at 1000 ppm ([1]; Pseudoperonospora cubensis, Table D, component (b) alone at 1000 ppm, read-out: CDM Obsd): 76% | pest or weed control at 5000 ppm ([1]; Pseudoperonospora cubensis, Table D, component (b) alone at 5000 ppm, read-out: CDM Obsd): 98% | pest or weed control at 10 µg/mL [1, 5]: 47% | pest or weed control at 40 µg/mL [1, 5]: 47% | pest or weed control at 200 µg/mL ([1]; Pseudoperonospora cubensis, component (b) alone 200 ppm (Compound 1 0 ppm), read-out: CDM Obsd): 94% | pest or weed control at 1000 µg/mL ([1]; Pseudoperonospora cubensis, component (b) alone 1000 ppm (Compound 1 0 ppm), read-out: CDM Obsd): 100% | pest or weed control at 5000 µg/mL ([1]; Pseudoperonospora cubensis, component (b) alone 5000 ppm (Compound 1 0 ppm), read-out: CDM Obsd): 100% | pest or weed control at 10 ppm [1, 6]: 46% | pest or weed control at 40 ppm [1, 7]: 31% | pest or weed control at 200 ppm ([1]; Pseudoperonospora cubensis, component (b) alone, 200 ppm, read-out: CDM Obsd (observed effect, cucumber downy mildew)): 86% | pest or weed control at 1000 ppm ([1]; Pseudoperonospora cubensis, component (b) alone, 1000 ppm, read-out: CDM Obsd (observed effect, cucumber downy mildew)): 99% | pest or weed control at 5000 ppm ([1]; Pseudoperonospora cubensis, component (b) alone, 5000 ppm, read-out: CDM Obsd (observed effect, cucumber downy mildew)): 100% | pest or weed control at 10 ppm [2, 8]: 0% | pest or weed control at 40 ppm [2, 9]: 0% | pest or weed control at 200 ppm ([2]; read-out: TLB Obsd (observed effect, tomato late blight), component (b) alone, 200 ppm): 0% | pest or weed control at 1000 ppm ([2]; read-out: TLB Obsd (observed effect, tomato late blight), component (b) alone, 1000 ppm): 38% | pest or weed control at 5000 ppm ([2]; read-out: TLB Obsd (observed effect, tomato late blight), component (b) alone, 5000 ppm): 92% | pest or weed control at 10 ppm [2, 10]: 6% | pest or weed control at 40 ppm [2, 11]: 6% | pest or weed control at 200 ppm ([2]; read-out: TLB Obsd, Table D, component (b) alone at 200 ppm): 19% | pest or weed control at 1000 ppm ([2]; read-out: TLB Obsd, Table D, component (b) alone at 1000 ppm): 57% | pest or weed control at 5000 ppm ([2]; read-out: TLB Obsd, Table D, component (b) alone at 5000 ppm): 77%

CCCOc1nc2ccc(I)cc2c(=O)n1CCC [proquinazid]
CDM Obsd (disease control rating) ([1]; Table A, component (b) alone 0.4 ppm): 47% | CDM Obsd (disease control rating) ([1]; Table A, component (b) alone 2 ppm): 47% | CDM Obsd (disease control rating) ([1]; Table A, component (b) alone 10 ppm): 47% | CDM Obsd (disease control rating) ([1]; Table A, component (b) alone 40 ppm): 47% | CDM Obsd (disease control rating) ([1]; Table A, component (b) alone 200 ppm): 47% | CDM Obsd ([1]; Table G, component (b) alone at 0.4 ppm): 26% | CDM Obsd ([1]; Table G, component (b) alone at 2 ppm): 26% | CDM Obsd ([1]; Table G, component (b) alone at 10 ppm): 26% | CDM Obsd ([1]; Table G, component (b) alone at 40 ppm): 26% | CDM Obsd ([1]; Table G, component (b) alone at 200 ppm): 26% | CDM Obsd ([1]; component (b) alone, 0.04 ppm): 0% | CDM Obsd ([1]; component (b) alone, 2 ppm): 0% | CDM Obsd ([1]; component (b) alone, 10 ppm): 0% | CDM Obsd ([1]; component (b) alone, 40 ppm): 0% | CDM Obsd ([1]; component (b) alone, 200 ppm): 0% | TLB Obsd (disease control rating) ([2]; component (b) alone 0.4 ppm): 0% | TLB Obsd (disease control rating) ([2]; component (b) alone 2 ppm): 0% | TLB Obsd (disease control rating) ([2]; component (b) alone 10 ppm): 0% | TLB Obsd (disease control rating) ([2]; component (b) alone 40 ppm): 24% | TLB Obsd (disease control rating) ([2]; component (b) alone 200 ppm): 0% | TLB Obsd ([2]; component (b) alone, 0.04 ppm): 17% | TLB Obsd ([2]; component (b) alone, 2 ppm): 0% | TLB Obsd ([2]; component (b) alone, 10 ppm): 8% | TLB Obsd ([2]; component (b) alone, 40 ppm): 8% | TLB Obsd ([2]; component (b) alone, 200 ppm): 17%

COC(=O)N(OC)c1ccccc1COc1ccn(-c2ccc(Cl)cc2)n1 [pyraclostrobin]
pest or weed control at 0.08 ppm ([1]; Pseudoperonospora cubensis, Table D, component (b) alone at 0.08 ppm, read-out: CDM Obsd): 47% | pest or weed control at 0.4 ppm ([1]; Pseudoperonospora cubensis, Table D, component (b) alone at 0.4 ppm, read-out: CDM Obsd): 47% | pest or weed control at 2 ppm ([1]; Pseudoperonospora cubensis, Table D, component (b) alone at 2 ppm, read-out: CDM Obsd): 98% | pest or weed control at 10 ppm [1, 3]: 100% | pest or weed control at 40 ppm [1, 4]: 100% | pest or weed control at 0.08 µg/mL ([1]; Pseudoperonospora cubensis, component (b) alone 0.08 ppm (Compound 1 0 ppm), read-out: CDM Obsd): 47% | pest or weed control at 0.4 µg/mL ([1]; Pseudoperonospora cubensis, component (b) alone 0.4 ppm (Compound 1 0 ppm), read-out: CDM Obsd): 47% | pest or weed control at 2 µg/mL ([1]; Pseudoperonospora cubensis, component (b) alone 2 ppm (Compound 1 0 ppm), read-out: CDM Obsd): 57% | pest or weed control at 10 µg/mL [1, 5]: 100% | pest or weed control at 40 µg/mL [1, 5]: 100% | pest or weed control at 0.08 ppm ([1]; Pseudoperonospora cubensis, component (b) alone, 0.08 ppm, read-out: CDM Obsd (observed effect, cucumber downy mildew)): 0% | pest or weed control at 0.4 ppm ([1]; Pseudoperonospora cubensis, component (b) alone, 0.4 ppm, read-out: CDM Obsd (observed effect, cucumber downy mildew)): 0% | pest or weed control at 2 ppm ([1]; Pseudoperonospora cubensis, component (b) alone, 2 ppm, read-out: CDM Obsd (observed effect, cucumber downy mildew)): 68% | pest or weed control at 10 ppm [1, 6]: 100% | pest or weed control at 40 ppm [1, 7]: 100% | pest or weed control at 0.08 ppm ([2]; read-out: TLB Obsd (observed effect, tomato late blight), component (b) alone, 0.08 ppm): 15% | pest or weed control at 0.4 ppm ([2]; read-out: TLB Obsd (observed effect, tomato late blight), component (b) alone, 0.4 ppm): 35% | pest or weed control at 2 ppm ([2]; read-out: TLB Obsd (observed effect, tomato late blight), component (b) alone, 2 ppm): 63% | pest or weed control at 10 ppm [2, 8]: 90% | pest or weed control at 40 ppm [2, 9]: 94% | pest or weed control at 0.08 ppm ([2]; read-out: TLB Obsd, Table D, component (b) alone at 0.08 ppm): 26% | pest or weed control at 0.4 ppm ([2]; read-out: TLB Obsd, Table D, component (b) alone at 0.4 ppm): 40% | pest or weed control at 2 ppm ([2]; read-out: TLB Obsd, Table D, component (b) alone at 2 ppm): 78% | pest or weed control at 10 ppm [2, 10]: 85% | pest or weed control at 40 ppm [2, 11]: 95%
